Assay results: PubChem BioAssay AID248 (DTP/NCI, 2004)
Where “and” joins values, the source holds several entries; their conditions need not be identical. Identical values can stand only once. Inconclusive results and toxic doses are left out. Rule as the data show it: active = T/C of 150% or more; inactive = T/C below 125%.

Test system: L1210 leukemia ip in BDF1 mice, survival T/C
Assay: NCI In Vivo Anticancer Drug Screen. Data for tumor model L1210 Leukemia (intraperitoneal) in B6D2F1 (BDF1) mice
Conditions: higher = longer survival
In short: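 Ratio derived from survival: compound-dosed mice over vehicle-dosed mice, all bearing a transplantable tumor.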

[1] = endpoint: mean survival time, dose: 100.0 mg/kg/injection, schedule: Q01DX001 (ip), vehicle: carboxymethylcellulose (CMC)
[2] = endpoint: mean survival time, dose: 200.0 mg/kg/injection, schedule: Q01DX001 (ip), vehicle: carboxymethylcellulose (CMC)
[3] = endpoint: mean survival time, dose: 400.0 mg/kg/injection, schedule: Q01DX001 (ip), vehicle: carboxymethylcellulose (CMC)
[4] = endpoint: mean survival time, dose: 100.0 mg/kg/injection, schedule: Q01DX009 (ip), vehicle: Klucel (hydroxypropylcellulose) (HPC)
[5] = endpoint: mean survival time, dose: 200.0 mg/kg/injection, schedule: Q01DX009 (ip), vehicle: Klucel (hydroxypropylcellulose) (HPC)
[6] = endpoint: mean survival time, dose: 400.0 mg/kg/injection, schedule: Q01DX009 (ip), vehicle: Klucel (hydroxypropylcellulose) (HPC)
[7] = endpoint: mean survival time, dose: 100.0 mg/kg/injection, schedule: Q04DX003 (ip), vehicle: saline with Tween-80
[8] = endpoint: mean survival time, dose: 200.0 mg/kg/injection, schedule: Q04DX003 (ip), vehicle: saline with Tween-80
[9] = endpoint: mean survival time, dose: 400.0 mg/kg/injection, schedule: Q04DX003 (ip), vehicle: saline with Tween-80
[10] = endpoint: mean survival time, dose: 100.0 mg/kg/injection, schedule: Q04DX003 (ip), vehicle: saline
[11] = endpoint: mean survival time, dose: 200.0 mg/kg/injection, schedule: Q04DX003 (ip), vehicle: saline
[12] = endpoint: mean survival time, dose: 50.0 mg/kg/injection, schedule: Q01DX009 (ip), vehicle: saline
[13] = endpoint: mean survival time, dose: 100.0 mg/kg/injection, schedule: Q01DX009 (ip), vehicle: saline
[14] = endpoint: mean survival time, dose: 200.0 mg/kg/injection, schedule: Q01DX009 (ip), vehicle: saline
[15] = endpoint: mean survival time, dose: 100.0 mg/kg/injection, schedule: Q01DX009 (ip), vehicle: saline with Tween-80
[16] = endpoint: mean survival time, dose: 200.0 mg/kg/injection, schedule: Q01DX009 (ip), vehicle: saline with Tween-80

Measured: T/C

[N-]=[N+]=NC(=O)C1C(c2ccccc2)=C1c1ccccc1
inactive: endpoint: mean survival time, dose: 100.0 mg/kg/injection, schedule: Q01DX001 (ip), vehicle: steriod suspending solution 93 % of control | endpoint: mean survival time, dose: 200.0 mg/kg/injection, schedule: Q01DX001 (ip), vehicle: steriod suspending solution 106 % of control | endpoint: mean survival time, dose: 400.0 mg/kg/injection, schedule: Q01DX001 (ip), vehicle: steriod suspending solution 98 % of control

Cc1ncc(CCO)c2c1OC(C)(C)OC2
inactive: [1] 98 % of control | [2] 110 % of control | [3] 101 % of control

COc1ccc(NC(=O)Oc2ccc(Cl)cc2C)c(OC)c1
inactive: [4] 104 % of control | [5] 108 % of control | [6] 108 % of control

CCOC(=O)Nc1cc(NC(c2ccccc2)c2ccccc2)c([N+](=O)[O-])c(NC/C(C)=N/NC(N)=O)n1
inactive: [1] 95 % of control | [2] 93 % of control | [3] 89 % of control

Cc1ccc(NC(=S)NNC(=S)NNc2ccccc2)cc1C
inactive: [4] 90 % of control | [7] 89 % of control | [5] 102 % of control | [8] 93 % of control | [6] 103 % of control | [9] 91 % of control

CC(=O)OC(C#N)c1ccco1 (stereo not given)
inactive: endpoint: mean survival time, dose: 3.0 mg/kg/injection, schedule: Q01DX009 (ip), vehicle: saline with Tween-80 91 % of control | endpoint: mean survival time, dose: 3.0 mg/kg/injection, schedule: Q04DX003 (ip), vehicle: saline with Tween-80 105 % of control | endpoint: mean survival time, dose: 6.0 mg/kg/injection, schedule: Q01DX009 (ip), vehicle: saline with Tween-80 100 % of control | endpoint: mean survival time, dose: 6.0 mg/kg/injection, schedule: Q04DX003 (ip), vehicle: saline with Tween-80 101 % of control | endpoint: mean survival time, dose: 12.0 mg/kg/injection, schedule: Q01DX009 (ip), vehicle: saline with Tween-80 91 % of control | endpoint: mean survival time, dose: 12.0 mg/kg/injection, schedule: Q04DX003 (ip), vehicle: saline with Tween-80 101 % of control | endpoint: mean survival time, dose: 12.5 mg/kg/injection, schedule: Q04DX003 (ip), vehicle: saline with Tween-80 89 % of control

Cc1ccc(Nc2ccc(Nc3ccc(C)cc3)c3c2C(=O)c2c(O)ccc(O)c2C3=O)cc1
inactive: endpoint: mean survival time, dose: 200.0 mg/kg/injection, schedule: Q01DX001 (ip), vehicle: Klucel (hydroxypropylcellulose) (HPC) 90 % of control | endpoint: mean survival time, dose: 400.0 mg/kg/injection, schedule: Q01DX001 (ip), vehicle: Klucel (hydroxypropylcellulose) (HPC) 97 % of control

C=C(Cl)CSC(=S)N(CC)CC
inactive: endpoint: mean survival time, dose: 50.0 mg/kg/injection, schedule: Q01DX009 (ip), vehicle: saline sonified 94 % of control | endpoint: mean survival time, dose: 100.0 mg/kg/injection, schedule: Q01DX009 (ip), vehicle: saline sonified 94 % of control | [10] 105 % of control | endpoint: mean survival time, dose: 200.0 mg/kg/injection, schedule: Q01DX009 (ip), vehicle: saline sonified 105 % of control | [11] 102 % of control

NCCCCC(=O)NC(CCCCNC(=O)OCc1ccccc1)C(=O)NCCCCC(=O)NC(CCCCNC(=O)OCc1ccccc1)C(=O)NCCCCC(=O)NC(CCCCNC(=O)OCc1ccccc1)C(=O)NCCCCC(=O)NC(CCCCNC(=O)OCc1ccccc1)C(=O)NCCCCC(=O)NC(CCCCNC(=O)OCc1ccccc1)C(=O)NCCCCC(=O)NC(CCCCNC(=O)OCc1ccccc1)C(=O)NCCCCC(=O)NC(CCCCNC(=O)OCc1ccccc1)C(=O)O (stereo not given)
inactive: endpoint: mean survival time, dose: 100.0 mg/kg/injection, schedule: Q01DX001 (ip), vehicle: saline 92 % of control | endpoint: mean survival time, dose: 200.0 mg/kg/injection, schedule: Q01DX001 (ip), vehicle: saline 90 % of control | endpoint: mean survival time, dose: 400.0 mg/kg/injection, schedule: Q01DX001 (ip), vehicle: saline 95 % of control

Cc1cc(C)c(S(=O)(=O)O)cc1C
inactive: [12] 92 % of control | [13] 92 % of control | [10] 98 % of control | [14] 88 % of control

CCOC(=O)C(C)NC(=O)C(CSC(c1ccccc1)(c1ccccc1)c1ccccc1)NC(c1ccccc1)(c1ccccc1)c1ccccc1 (stereo not given)
inactive: endpoint: mean survival time, dose: 25.0 mg/kg/injection, schedule: Q01DX009 (ip), vehicle: saline 98 % of control | [12] 103 % of control | [13] 92 % of control | [14] 93 % of control | endpoint: mean survival time, dose: 400.0 mg/kg/injection, schedule: Q01DX009 (ip), vehicle: saline 98 % of control

C[OH+]c1ccccc1C(=O)O.C[OH+]c1ccccc1C(=O)O.[Ni]
inactive: endpoint: mean survival time, dose: 25.0 mg/kg/injection, schedule: Q04DX002 (ip), vehicle: saline with Tween-80 97 % of control and 103 % of control | endpoint: mean survival time, dose: 50.0 mg/kg/injection, schedule: Q04DX002 (ip), vehicle: saline with Tween-80 100 % of control and 107 % of control | endpoint: mean survival time, dose: 200.0 mg/kg/injection, schedule: Q04DX002 (ip), vehicle: saline with Tween-80 120 % of control and 90 % of control

OC(c1cc(C(F)(F)F)nc2c(F)cccc12)C1CCCCN1 (stereo not given)
inactive: [7] 102 % of control | [8] 105 % of control | [9] 96 % of control

Nc1nc(SCc2ccccn2)c2ncn(C3OC(CO)C(O)C3O)c2n1 (stereo not given)
inactive: endpoint: mean survival time, dose: 6.25 mg/kg/injection, schedule: Q01DX Z (ip), vehicle: methylcellulose (MC) 106 % of control | endpoint: mean survival time, dose: 12.5 mg/kg/injection, schedule: Q01DX Z (ip), vehicle: methylcellulose (MC) 104 % of control | endpoint: mean survival time, dose: 25.0 mg/kg/injection, schedule: Q01DX Z (ip), vehicle: methylcellulose (MC) 112 % of control

Cc1ccc(NC(=O)N2CCN(c3ccccc3)CC2)c([N+](=O)[O-])c1
inactive: endpoint: mean survival time, dose: 100.0 mg/kg/injection, schedule: Q04DX003 (ip), vehicle: Klucel (hydroxypropylcellulose) (HPC) 96 % of control | endpoint: mean survival time, dose: 200.0 mg/kg/injection, schedule: Q04DX003 (ip), vehicle: Klucel (hydroxypropylcellulose) (HPC) 102 % of control | endpoint: mean survival time, dose: 400.0 mg/kg/injection, schedule: Q04DX003 (ip), vehicle: Klucel (hydroxypropylcellulose) (HPC) 91 % of control

Cc1ccc(S(=O)(=O)Nc2ccc3ncsc3c2[N+](=O)[O-])cc1
inactive: [15] 108 % of control | [7] 97 % of control | [16] 93 % of control | [8] 102 % of control | endpoint: mean survival time, dose: 400.0 mg/kg/injection, schedule: Q01DX009 (ip), vehicle: saline with Tween-80 103 % of control | [9] 102 % of control

FC(F)(F)C(F)(F)C1=NS1(C(F)(C(F)(F)F)C(F)(F)F)C(F)(C(F)(F)F)C(F)(F)F
inactive: endpoint: mean survival time, dose: 100.0 mg/kg/injection, schedule: Q01DX001 (ip), vehicle: acetone 94 % of control | endpoint: mean survival time, dose: 200.0 mg/kg/injection, schedule: Q01DX001 (ip), vehicle: acetone 103 % of control | endpoint: mean survival time, dose: 400.0 mg/kg/injection, schedule: Q01DX001 (ip), vehicle: acetone 101 % of control

O=C(O)c1ccc(S(=O)(=O)O)cc1C(=O)O
inactive: endpoint: mean survival time, dose: 50.0 mg/kg/injection, schedule: Q01DX001 (sc), vehicle: olive oil, sesame oil, peanut oil 104 % of control | endpoint: mean survival time, dose: 100.0 mg/kg/injection, schedule: Q01DX001 (sc), vehicle: olive oil, sesame oil, peanut oil 102 % of control | [15] 89 % of control | [10] 104 % of control | endpoint: mean survival time, dose: 200.0 mg/kg/injection, schedule: Q01DX001 (sc), vehicle: olive oil, sesame oil, peanut oil 96 % of control | [16] 88 % of control | [11] 102 % of control | endpoint: mean survival time, dose: 400.0 mg/kg/injection, schedule: Q01DX001 (sc), vehicle: olive oil, sesame oil, peanut oil 98 % of control | endpoint: mean survival time, dose: 400.0 mg/kg/injection, schedule: Q04DX003 (ip), vehicle: saline 101 % of control

CNCC(=O)NC(CO)C(=O)NC1C(C(N)=O)OC(n2ccc(N)nc2=O)C(O)C1O (stereo not given)
inactive: endpoint: median survival time, dose: 0.75 mg/kg/injection, schedule: Q04DX003 (ip), vehicle: saline 96 % of control | endpoint: median survival time, dose: 1.5 mg/kg/injection, schedule: Q04DX003 (ip), vehicle: saline 101 % of control | endpoint: median survival time, dose: 3.0 mg/kg/injection, schedule: Q04DX003 (ip), vehicle: saline 94 % of control

O=C1CSC(=S)N1c1cccc(C(F)(F)F)c1
inactive: [7] 108 % of control | [8] 101 % of control | [9] 104 % of control

CSc1cnnc2ccccc12
inactive: endpoint: mean survival time, dose: 25.0 mg/kg/injection, schedule: Q01DX009 (ip), vehicle: Klucel (hydroxypropylcellulose) (HPC) 110 % of control | endpoint: mean survival time, dose: 50.0 mg/kg/injection, schedule: Q01DX009 (ip), vehicle: Klucel (hydroxypropylcellulose) (HPC) 115 % of control

COCC1=CC(=O)CCC1CC1OC1(C)C (stereo not given)
inactive: endpoint: mean survival time, dose: 50.0 mg/kg/injection, schedule: Q01DX009 (ip), vehicle: saline with Tween-80 96 % of control | [15] 96 % of control | [16] 96 % of control
